Assays:
[1] = Absorbance and fluorescence in HEPES buffer; assay type: physicochemical; conditions: 10 mM HEPES buffer, pH 7.5
Protocol: The present inventors measured absorbance and a change in fluorescence of compound 1 under various solvent conditions.
The present inventors measured the absorbance and fluorescence of compound 1 in a buffer (pH 7.5, 10 mM HEPES). A UV/Vis spectrophotometer commercially available from HP was used to analyze the UV/Vis absorption spectra, and a photon technical international fluorescence system commercially available from PTI was used to analyze the fluorescence spectra. In this case, a cell used when compound 1 was put into each type of equipment was a standard quartz cell having a thickness of 1 cm.
In addition to compound 1, compound 5 was shown as a reference material in FIG. 1. In this case, compound 5 is a reference material obtained by introducing an alkyl group into a —OH group of compound 1 to remove an intramolecular hydrogen bond.
The panels (a) and (b) of the graph show the absorbances and fluorescence intensities of compound 5 and compound 1 under a solvent condition (for example, a 10 mM HEPES buffer, pH 7.5).

[2] = system: six kinase enzymes: ABL, BRAF, PDGFRa, RSK2, Src, TYK2; experiment: Effect of kinase inhibitor on binding of compound 1 to kinase enzymes (fluorescence intensity)
Protocol: In this experiment, a buffer (100 mM HEPES buffer, pH 7.4) was used as the solvent, and a kinase commercially available from Carna Biosciences was used as the kinase enzyme. Here, each kinase enzyme was stored at −80° C. together with a solvent (50 mM Tris-HCl, 150 mM NaCl, 0.1% CHAPS, 1 mM DTT, and 10% Glycerol, pH 7.5) kindly provided by the manufacturer. […] A 96-well fluorescence assay plate (commercially available from SPL Life Science) was used as a plate used upon measurement of fluorescence, and a VCITOR 3 multilabel counter (commercially available from Perkin Elmer-Wellesley) was used as a measuring machine. A 355 nm-thick filter was used to produce excitation wavelengths of the measuring machine, and a 535 nm-thick filter was used to produce emission wavelengths of the measuring machine. […]
More particularly, an effect of the inhibitor on a total of the six kinase enzymes was determined, and the six kinase enzymes are as follows: (A) ABL, (B) BRAF, (C) PDGFRa, (D) RSK2, (E) Src, and (F) TYK2. […]
In this case, compound 1 (100 μM), ATP (1 mM), Mg (1 mM), and a kinase enzyme (0.2 μg/ml) were stirred for 24 hours (at 37° C.), and an inhibitor (100 μM) was then treated. […] Here, a left bar of each of A to F represents a fluorescence intensity before treatment of the inhibitor, and a right bar of each of A to F represents a fluorescence intensity after treatment of the inhibitor.

96 kinase enzymes = experiment: KINOMEscan competition binding (DiscoveRX)
Description: (§1) More particularly, to determine selectivities to various kinds of kinase enzymes, the samples were entrusted to DiscoveRX (U.S.A), which was able to determine the binding affinities to a total of 96 kinase enzymes, to perform KINOMEscan experiments. This company treated all kinds of information on the entrusted samples as confidential, and analyzed the sample with charge. Compound 1 was provided to the company, and the company performed the KINOMEscan experiments, and provided the results (DiscoveRX corp.)
(§2) KINOMEscan is an experiment in which compound 1 and a compound (a material strongly binding to kinase enzymes) competing for compound 1 are treated with a kinase enzyme at the same time to determine how many the competing compound binds to active sites of the kinase enzymes, compared with compound 1. In this experiment, an experimental value is expressed as a percentile value. In this case, a lower percentile value means that compound 1 more strongly bind to the kinase enzymes.

TYK2 = biological target: T1, TYK2 (Homo sapiens, UniProt P29597); experiment: KINOMEscan competition binding (DiscoveRX); conditions: lower value means stronger binding
T1 construct: purchased DiscoveRX (contract KINOMEscan service)
T1 sequence (P29597 whole entry): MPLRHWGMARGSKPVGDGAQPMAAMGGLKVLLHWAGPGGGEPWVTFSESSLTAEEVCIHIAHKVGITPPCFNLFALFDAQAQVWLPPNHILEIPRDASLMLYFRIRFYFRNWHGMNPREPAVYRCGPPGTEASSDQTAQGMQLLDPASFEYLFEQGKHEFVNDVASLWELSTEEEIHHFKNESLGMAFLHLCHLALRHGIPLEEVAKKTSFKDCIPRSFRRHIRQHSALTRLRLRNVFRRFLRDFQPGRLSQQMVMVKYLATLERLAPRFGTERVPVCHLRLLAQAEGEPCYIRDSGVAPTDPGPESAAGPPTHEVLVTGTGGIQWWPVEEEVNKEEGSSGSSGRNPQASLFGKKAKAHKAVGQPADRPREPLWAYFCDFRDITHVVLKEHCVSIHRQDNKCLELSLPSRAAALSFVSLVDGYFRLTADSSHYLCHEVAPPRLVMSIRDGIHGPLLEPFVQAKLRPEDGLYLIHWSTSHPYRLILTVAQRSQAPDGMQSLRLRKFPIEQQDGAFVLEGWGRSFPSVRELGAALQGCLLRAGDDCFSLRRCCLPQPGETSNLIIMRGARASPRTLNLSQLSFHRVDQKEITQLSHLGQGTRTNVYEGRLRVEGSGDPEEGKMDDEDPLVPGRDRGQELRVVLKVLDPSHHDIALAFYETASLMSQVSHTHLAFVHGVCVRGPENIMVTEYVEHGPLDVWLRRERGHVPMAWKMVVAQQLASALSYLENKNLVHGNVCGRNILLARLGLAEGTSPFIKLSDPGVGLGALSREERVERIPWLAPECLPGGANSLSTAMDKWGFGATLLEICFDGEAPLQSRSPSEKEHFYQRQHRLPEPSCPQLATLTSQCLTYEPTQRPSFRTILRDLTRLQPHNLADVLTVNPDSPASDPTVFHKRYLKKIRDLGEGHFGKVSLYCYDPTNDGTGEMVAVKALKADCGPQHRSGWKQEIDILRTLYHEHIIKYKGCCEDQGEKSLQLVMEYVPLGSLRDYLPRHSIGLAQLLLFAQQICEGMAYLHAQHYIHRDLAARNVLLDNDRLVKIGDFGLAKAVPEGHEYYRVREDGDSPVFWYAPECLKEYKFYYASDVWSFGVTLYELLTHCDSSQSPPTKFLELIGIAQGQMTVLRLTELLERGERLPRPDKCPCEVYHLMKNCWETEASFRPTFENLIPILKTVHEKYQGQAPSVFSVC
Description: as §1, §2

BRAF = biological target: T2, BRAF (Homo sapiens, UniProt P15056); experiment: KINOMEscan competition binding (DiscoveRX); conditions: lower value means stronger binding
T2 construct: purchased DiscoveRX (contract KINOMEscan service)
T2 sequence (P15056 whole entry): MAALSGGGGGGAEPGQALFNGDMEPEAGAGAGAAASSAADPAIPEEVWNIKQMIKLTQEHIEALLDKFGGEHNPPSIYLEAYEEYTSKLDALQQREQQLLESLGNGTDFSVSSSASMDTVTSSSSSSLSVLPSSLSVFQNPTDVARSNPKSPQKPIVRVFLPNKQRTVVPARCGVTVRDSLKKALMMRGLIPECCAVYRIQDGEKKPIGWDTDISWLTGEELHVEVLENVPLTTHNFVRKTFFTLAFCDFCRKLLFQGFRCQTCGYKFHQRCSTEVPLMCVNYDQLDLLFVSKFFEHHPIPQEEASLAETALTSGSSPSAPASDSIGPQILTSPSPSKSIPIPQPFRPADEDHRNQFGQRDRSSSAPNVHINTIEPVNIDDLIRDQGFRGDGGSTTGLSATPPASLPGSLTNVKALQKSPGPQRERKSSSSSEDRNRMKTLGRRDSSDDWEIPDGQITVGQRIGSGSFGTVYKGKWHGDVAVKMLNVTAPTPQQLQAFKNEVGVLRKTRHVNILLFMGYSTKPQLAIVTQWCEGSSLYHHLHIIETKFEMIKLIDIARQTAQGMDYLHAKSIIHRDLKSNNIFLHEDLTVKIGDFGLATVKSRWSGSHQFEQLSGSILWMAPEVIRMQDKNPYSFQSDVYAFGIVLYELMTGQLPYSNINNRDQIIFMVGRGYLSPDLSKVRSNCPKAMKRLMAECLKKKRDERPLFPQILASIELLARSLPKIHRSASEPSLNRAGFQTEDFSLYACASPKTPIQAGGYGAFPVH
Description: as §1, §2

RSK2 = biological target: T3, RSK2 (Homo sapiens, UniProt P51812); experiment: KINOMEscan competition binding (DiscoveRX); conditions: lower value means stronger binding
T3 construct: purchased DiscoveRX (contract KINOMEscan service)
T3 sequence (P51812 whole entry): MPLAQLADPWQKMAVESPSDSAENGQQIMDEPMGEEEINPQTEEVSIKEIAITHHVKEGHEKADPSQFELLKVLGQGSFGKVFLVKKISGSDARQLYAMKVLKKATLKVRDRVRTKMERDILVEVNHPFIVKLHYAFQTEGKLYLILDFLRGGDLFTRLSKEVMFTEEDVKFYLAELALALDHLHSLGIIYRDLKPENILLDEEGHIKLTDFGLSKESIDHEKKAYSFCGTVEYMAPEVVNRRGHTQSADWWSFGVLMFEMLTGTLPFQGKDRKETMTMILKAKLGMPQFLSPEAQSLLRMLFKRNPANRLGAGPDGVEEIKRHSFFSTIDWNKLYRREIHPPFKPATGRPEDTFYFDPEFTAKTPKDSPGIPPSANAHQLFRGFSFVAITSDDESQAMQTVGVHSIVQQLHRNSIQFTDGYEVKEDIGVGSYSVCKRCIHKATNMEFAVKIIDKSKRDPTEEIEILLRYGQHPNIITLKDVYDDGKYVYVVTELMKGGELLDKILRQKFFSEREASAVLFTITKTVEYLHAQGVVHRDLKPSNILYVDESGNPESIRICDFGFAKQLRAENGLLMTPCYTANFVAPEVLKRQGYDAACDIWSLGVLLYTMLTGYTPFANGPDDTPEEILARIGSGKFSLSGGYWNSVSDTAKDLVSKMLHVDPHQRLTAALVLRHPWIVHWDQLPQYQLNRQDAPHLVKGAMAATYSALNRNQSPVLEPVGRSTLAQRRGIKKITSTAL
Description: as §1, §2

ABL1 (T315I) = biological target: T4, ABL1 (T315I) (Homo sapiens, UniProt P00519, T315I); experiment: KINOMEscan competition binding (DiscoveRX); conditions: lower value means stronger binding
T4 construct: purchased DiscoveRX (contract KINOMEscan service)
Description: as §1, §2

PDGFRa = biological target: T5, PDGFRa (Homo sapiens, UniProt P16234); experiment: KINOMEscan competition binding (DiscoveRX); conditions: lower value means stronger binding
T5 construct: purchased Carna Biosciences
T5 sequence (P16234 24-1089): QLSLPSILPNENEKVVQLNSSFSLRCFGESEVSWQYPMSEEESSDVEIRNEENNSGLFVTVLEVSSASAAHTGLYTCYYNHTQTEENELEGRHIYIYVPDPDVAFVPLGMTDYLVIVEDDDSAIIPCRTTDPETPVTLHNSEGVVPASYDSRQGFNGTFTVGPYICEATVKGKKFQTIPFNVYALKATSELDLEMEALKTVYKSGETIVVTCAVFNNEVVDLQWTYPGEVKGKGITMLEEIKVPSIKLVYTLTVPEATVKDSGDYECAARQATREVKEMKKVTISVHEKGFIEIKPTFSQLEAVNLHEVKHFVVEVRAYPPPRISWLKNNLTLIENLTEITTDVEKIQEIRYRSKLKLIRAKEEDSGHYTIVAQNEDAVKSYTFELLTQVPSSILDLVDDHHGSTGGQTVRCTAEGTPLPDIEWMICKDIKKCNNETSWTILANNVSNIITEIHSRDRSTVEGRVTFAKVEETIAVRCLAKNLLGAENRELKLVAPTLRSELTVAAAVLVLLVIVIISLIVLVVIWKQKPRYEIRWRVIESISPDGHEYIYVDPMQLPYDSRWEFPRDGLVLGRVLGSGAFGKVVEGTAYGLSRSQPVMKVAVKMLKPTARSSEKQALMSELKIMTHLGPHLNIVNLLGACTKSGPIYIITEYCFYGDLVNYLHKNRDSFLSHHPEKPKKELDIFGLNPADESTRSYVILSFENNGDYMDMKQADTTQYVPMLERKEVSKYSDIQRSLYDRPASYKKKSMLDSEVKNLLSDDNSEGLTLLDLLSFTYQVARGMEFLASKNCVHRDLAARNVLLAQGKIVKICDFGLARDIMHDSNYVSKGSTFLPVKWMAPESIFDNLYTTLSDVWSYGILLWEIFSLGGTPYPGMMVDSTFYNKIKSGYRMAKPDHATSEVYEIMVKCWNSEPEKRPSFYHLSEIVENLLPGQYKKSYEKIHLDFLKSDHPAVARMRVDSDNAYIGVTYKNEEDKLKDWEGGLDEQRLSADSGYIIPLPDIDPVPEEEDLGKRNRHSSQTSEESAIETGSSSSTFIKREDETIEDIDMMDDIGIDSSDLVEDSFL
Description: as §1, §2

Src = biological target: T6, Src (Homo sapiens, UniProt P12931); experiment: Protein binding selectivity by change in fluorescence (fluorescence turn-on on binding)
T6 construct: purchased Carna Biosciences
T6 sequence (P12931 whole entry): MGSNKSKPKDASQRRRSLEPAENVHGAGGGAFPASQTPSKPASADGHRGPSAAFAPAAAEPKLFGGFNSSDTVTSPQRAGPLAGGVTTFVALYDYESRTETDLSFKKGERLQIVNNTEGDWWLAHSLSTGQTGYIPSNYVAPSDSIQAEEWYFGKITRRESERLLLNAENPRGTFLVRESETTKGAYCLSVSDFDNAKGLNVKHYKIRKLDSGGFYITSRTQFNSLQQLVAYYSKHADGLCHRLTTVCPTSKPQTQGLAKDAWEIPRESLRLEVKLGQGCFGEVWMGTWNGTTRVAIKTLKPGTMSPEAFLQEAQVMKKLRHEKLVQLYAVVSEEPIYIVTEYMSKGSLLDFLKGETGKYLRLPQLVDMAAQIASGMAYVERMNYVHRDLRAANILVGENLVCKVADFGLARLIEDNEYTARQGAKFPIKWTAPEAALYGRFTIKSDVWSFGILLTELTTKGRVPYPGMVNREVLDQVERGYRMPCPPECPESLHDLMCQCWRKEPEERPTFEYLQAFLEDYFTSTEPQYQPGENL
Protocol: More particularly, to determine whether compound 1 selectively binds to a kinase enzyme, various proteins (including a kinase enzyme) were used to check a change in fluorescence. In this experiment, a buffer (100 mM HEPES buffer, pH 7.4) was used as the solvent, and a kinase commercially available from Carna Biosciences was used as the kinase enzyme. Here, each kinase enzyme was stored at −80° C. together with a solvent (50 mM Tris-HCl, 150 mM NaCl, 0.1% CHAPS, 1 mM DTT, and 10% Glycerol, pH 7.5) kindly provided by the manufacturer. […] A 96-well fluorescence assay plate (commercially available from SPL Life Science) was used as a plate used upon measurement of fluorescence, and a VCITOR 3 multilabel counter (commercially available from Perkin Elmer-Wellesley) was used as a measuring machine. A 355 nm-thick filter was used to produce excitation wavelengths of the measuring machine, and a 535 nm-thick filter was used to produce emission wavelengths of the measuring machine. Stirring was performed at 37° C. for 24 hours at a rotary speed of 170 rpm using an NB-205Q model (commercially available from N-BIOTEK). Compound 1 was dissolved in a DMSO solution (1 mM, 10 mM, 50 mM, 100 mM, and 200 mM) to be used, and DMSO in every tube was adjusted to be substantially the same content (less than 1%) under the finally used solvent conditions. Mg^2+ and ATP were used at a content of 1 mM.
In the graph shown in FIG. 2, the horizontal axis represents kinds of proteins, and the vertical axis represents fluorescence intensities of the proteins. Each experimental value was basically an average value of three experiments conducted through the same course for preparing for experiments, a concentration of compound 1 used was 100 μM, and an amount of each protein was 0.2 μg/mL. The kinds of proteins indicated on the horizontal axis are as follows. […]
More particularly, the solvent and experiment conditions used were substantially the same as in Example 3. In the graph shown in FIG. 7, A represents a fluorescence intensity when compound 1 (100 μM) is used alone, B represents a fluorescence intensity when Mg (1 mM) is added to compound 1, C represents a fluorescence intensity when ATP (1 mM) is added to compound 1, and D represents a fluorescence intensity when compound 1 is treated with Mg (1 mM) and ATP (1 mM) at the same time.
More particularly, a concentration of the kinase enzyme was set to 0.2 μg/mL, fluorescence intensity according to the concentration of compound 1 was measured in the presence of Mg (1 mM) and ATP (1 mM), and the solvent conditions and other conditions were substantially the same as in Example 3.

fluorescence emission [1]: did not emit fluorescence
maximum absorbance [1]: 390 nm
fluorescence intensity after later treatment of inhibitor ([2]; 24 hours 37° C. with kinase, Mg, ATP, then inhibitor 100 μM for another 24 hours): decreased
number of kinase enzymes bound, of a total of 96 (96 kinase enzymes): at least 50
KINOMEscan percentile value (TYK2): low percentile value
KINOMEscan percentile value (BRAF): low percentile value
KINOMEscan percentile value (RSK2): low percentile value
KINOMEscan percentile value (ABL1 (T315I)): low percentile value
KINOMEscan percentile value (PDGFRa): low percentile value
fluorescence intensity (Src; compound 1 100 μM, protein 0.2 μg/mL, with Mg and ATP (1 mM), 37° C. 24 hours): increase in fluorescence
increase in fluorescence intensity (Src; compound 1 at approximately 50 μM, kinase 0.2 μg/mL, Mg 1 mM, ATP 1 mM): approximately 50%
SMILES: CN(C)c1ccc2cc(C=O)c(O)cc2c1 [compound 1, 6-(dimethylamino)-3-hydroxyl-2-naphthaldehyde]
fluorescence intensity with inhibitor included ([2]; compound 1 100 μM, kinase 0.2 μg/ml, Mg 1 mM, ATP 1 mM, Gleevec 100 μM together): did not selectively bind to the kinase enzymes to cause a sufficient increase in fluorescence intensity
fluorescence intensity, effect of cofactors (Src; compound 1 100 μM, case D: Mg (1 mM) and ATP (1 mM) together): highest increase in fluorescence intensity
fluorescence signal intensity according to concentration of kinase enzyme (Src; compound 1 100 μM, enzyme 0.2 μg and 1 μg): stronger fluorescence signal intensity at higher concentrations
